The results in this text go back to patent US20210188775A1, “CARBOXAMIDE AND SULFONAMIDE DERIVATIVES USEFUL AS TEAD MODULATORS” (Genentech, Inc., priority 2018, published 2021).

Common to all, as to format: binding
Assay [1] has as its target TEAD1 (Homo sapiens, UniProt P28347). Description: Lipid HTRF TEAD1.
The target in assay [2] is T1, TEAD3 (Homo sapiens, UniProt Q99594). In words: Lipid HTRF TEAD3.
The target in assay [3] is T2, TEAD2 (Homo sapiens, UniProt Q15562). Description: Lipid HTRF TEAD2.
The target in assay [4] is TEAD4 (Homo sapiens, UniProt Q15561). Description: Lipid HTRF TEAD4.
Assay [5] addresses T2, TEAD2. In words: TEAD lipid assay (Lipid FP, Bodipy-C16 probe displacement). The conditions noted are these: fluorescence polarization, His-tagged TEAD, 60 minutes incubation. The procedure:
(§1) A TEAD lipid assay was done according to the following method. His-tagged TEAD proteins were pre-incubated with a Bodipy-C16 FP probe (Life Technologies Cat #D3821) for 30 minutes at room temperature to pre-form TEAD-probe complex. […] Duplicate 10 point dose response curves were generated for each test compound. The potency of compounds as TEAD lipid pocket binders was determined by IC50 value generated using a non-linear 4 parameter curve fit.

Assay [6] concerns the target T1, TEAD3. The description is as above. The following applies: fluorescence polarization, His-tagged TEAD, 60 minutes incubation. The procedure: as §1

Sequence of TEAD1 (P28347 whole entry, species assumed): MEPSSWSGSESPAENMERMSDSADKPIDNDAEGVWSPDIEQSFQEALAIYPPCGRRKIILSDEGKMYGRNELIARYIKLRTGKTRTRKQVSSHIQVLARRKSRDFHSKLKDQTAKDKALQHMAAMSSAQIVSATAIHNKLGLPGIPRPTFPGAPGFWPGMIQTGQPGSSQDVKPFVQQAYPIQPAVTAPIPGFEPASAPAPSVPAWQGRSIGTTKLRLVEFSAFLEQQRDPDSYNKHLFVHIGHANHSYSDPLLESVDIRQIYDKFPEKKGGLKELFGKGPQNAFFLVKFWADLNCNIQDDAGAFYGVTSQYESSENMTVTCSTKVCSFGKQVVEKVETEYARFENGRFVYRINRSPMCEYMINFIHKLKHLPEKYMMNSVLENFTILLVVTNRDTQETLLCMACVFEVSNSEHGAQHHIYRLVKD
Sequence of TEAD4 (Q15561 whole entry, species assumed): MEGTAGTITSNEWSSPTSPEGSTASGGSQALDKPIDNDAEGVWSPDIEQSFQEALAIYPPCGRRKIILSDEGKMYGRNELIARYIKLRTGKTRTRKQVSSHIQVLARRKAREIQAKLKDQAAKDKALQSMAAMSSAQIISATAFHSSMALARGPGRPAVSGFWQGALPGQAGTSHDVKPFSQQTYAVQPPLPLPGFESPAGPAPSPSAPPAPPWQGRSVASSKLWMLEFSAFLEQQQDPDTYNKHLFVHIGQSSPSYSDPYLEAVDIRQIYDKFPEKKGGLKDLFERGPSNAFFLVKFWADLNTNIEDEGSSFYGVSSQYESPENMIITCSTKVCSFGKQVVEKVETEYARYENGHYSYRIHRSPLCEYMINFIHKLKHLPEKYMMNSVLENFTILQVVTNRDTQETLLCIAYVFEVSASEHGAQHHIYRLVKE
T1 sequence (Q99594 whole entry, species assumed): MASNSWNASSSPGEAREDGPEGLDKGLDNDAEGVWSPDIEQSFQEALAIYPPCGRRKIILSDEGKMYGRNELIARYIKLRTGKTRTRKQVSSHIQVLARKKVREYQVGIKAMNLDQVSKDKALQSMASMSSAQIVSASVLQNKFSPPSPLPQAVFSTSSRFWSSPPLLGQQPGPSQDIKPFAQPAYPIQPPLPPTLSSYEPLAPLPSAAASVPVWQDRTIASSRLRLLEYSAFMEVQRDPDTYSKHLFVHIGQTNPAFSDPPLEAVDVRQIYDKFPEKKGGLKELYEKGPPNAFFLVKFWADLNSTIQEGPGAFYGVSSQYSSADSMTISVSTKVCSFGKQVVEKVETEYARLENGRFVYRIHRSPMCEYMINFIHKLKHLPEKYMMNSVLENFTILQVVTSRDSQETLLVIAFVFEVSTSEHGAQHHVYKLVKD
T2 sequence (Q15562 whole entry, species assumed): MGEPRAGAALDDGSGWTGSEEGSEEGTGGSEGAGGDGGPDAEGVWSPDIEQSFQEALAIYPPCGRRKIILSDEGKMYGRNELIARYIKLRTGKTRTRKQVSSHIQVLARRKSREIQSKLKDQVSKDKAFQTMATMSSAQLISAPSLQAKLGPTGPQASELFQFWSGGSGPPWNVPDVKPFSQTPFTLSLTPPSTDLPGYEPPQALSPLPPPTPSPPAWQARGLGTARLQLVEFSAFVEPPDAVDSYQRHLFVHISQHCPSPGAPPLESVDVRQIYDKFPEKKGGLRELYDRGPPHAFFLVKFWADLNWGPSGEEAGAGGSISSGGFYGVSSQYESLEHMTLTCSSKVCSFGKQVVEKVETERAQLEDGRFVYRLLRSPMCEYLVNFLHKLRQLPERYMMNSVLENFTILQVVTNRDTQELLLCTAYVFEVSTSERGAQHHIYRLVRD

For the compound `CNC(=O)Cc1cccc(CNC(=O)c2cc(/C=C/C3CCC(F)(F)CC3)c(OC)cn2)c1` [Compound 55, (E)-4-(2-(4,4-Difluorocyclohexyl)vinyl)-5-methoxy-N-(3-(2-(methylamino)-2-oxoethyl)benzyl)picolinamide], the IC50 in assay [1] is 198 nM; in assay [2], 230 nM; in assay [3], 89 nM; in assay [4], 73 nM.
Consider `CNC(=O)Cc1cccc(CNC(=O)c2cc(/C=C/[C@H]3CC[C@H](C(F)(F)F)CC3)c(OC)cn2)c1` [Compound 57B, 5-methoxy-N-(3-(2-(methylamino)-2-oxoethyl)benzyl)-4-((E)-2-(trans-4-(trifluoromethyl)cyclohexyl)vinyl) picolinamide], for which the IC50 worked out at 128 nM in assay [1], 298 nM in assay [2], 17 nM in assay [3] and 19 nM in assay [4].
`CNC(=O)Cc1cccc(CNC(=O)c2cc(/C=C/[C@H]3CC[C@@H](C(F)(F)F)CC3)c(OC)cn2)c1` [Compound 57A, 5-Methoxy-N-(3-(2-(methylamino)-2-oxoethyl)benzyl)-4-((E)-2-(cis-4-(trifluoromethyl)cyclohexyl)vinyl) picolinamide]: the IC50 in assay [1] worked out at 389 nM; in assay [2], 867 nM; in assay [3], 46 nM; in assay [4], 131 nM.
Take `CNC(=O)Cc1cccc(CNC(=O)c2cnc(OC)c(/C=C/[C@H]3CC[C@@H](C(F)(F)F)CC3)c2)c1` [Compound 56A, 6-Methoxy-N-(3-(2-(methylamino)-2-oxoethyl)benzyl)-5-((E)-2-(cis-4-(trifluoromethyl)cyclohexyl)vinyl)nicotinamide]: the 50% inhibitory concentration (IC50) in assay [1] was 708 nM; in assay [2] it was 15200 nM; in assay [3] it was 79 nM; in assay [4], 355 nM.
The like results for `CNC(=O)Cc1cccc(CNC(=O)c2cnc(OC)c(/C=C/[C@H]3CC[C@H](C(F)(F)F)CC3)c2)c1` [Compound 56B, 6-methoxy-N-(3-(2-(methylamino)-2-oxoethyl)benzyl)-5-((E)-2-(trans-4-(trifluoromethyl)cyclohexyl)vinyl) nicotinamide] were, in that order, 193 nM, 2090 nM, 31 nM and 39 nM.
As for `C=CS(=O)(=O)Nc1cnc(OC)c(/C=C/C2CCC(F)(F)CC2)c1` [Compound 58, N-[5-[(E)-2-(4,4-difluorocyclohexyl)vinyl]-6-methoxy-3-pyridyl]ethenesulfonamide], the IC50 in assay [1] was found to be 34 nM; in assay [2] it was 34 nM; in assay [3] it was 10 nM; in assay [4], 8 nM.
In the case of `CNC(=O)Cc1cccc(CNC(=O)c2cnc(OC)c(/C=C/C3CCC(F)(F)CC3)c2)c1` [Compound 54, (E)-5-(2-(4,4-difluorocyclohexyl)vinyl)-6-methoxy-N-(3-(2-(methylamino)-2-oxoethyl)benzyl)nicotinamide], the IC50 in assay [1] was determined as 318 nM; in assay [2] it was 4000 nM; in assay [3], 146 nM; in assay [4], 224 nM.
With `COc1cc(F)c(NS(C)(=O)=O)cc1-c1ccc(C(C)C)cc1` [Compound 12, N-[2-fluoro-5-(4-isopropylphenyl)-4-methoxy-phenyl]methanesulfonamide], the figures for the IC50 in assay [5] and in assay [6] were 590 nM and 860 nM, respectively.
The like results for `CC[C@H](CO)NC(=O)c1cc(/C=C/C2CCC(F)(F)CC2)c(OC)cn1` (racemic) [Compound 41, 5-methoxy-4-[rac-(E)-2-(4,4-difluorocyclohexyl)vinyl]-N-[rac-(1R)-1-(hydroxymethyl)propyl]pyridine-2-carboxamide] were, in that order, 1800 nM and 1100 nM.
On the same counts, the results for `COc1ccc(NS(C)(=O)=O)cc1/C=C/CC1CCCCC1` [Compound 4, N-[3-[(E)-3-cyclohexylprop-1-enyl]-4-methoxy-phenyl]methanesulfonamide] are 960 nM and 1300 nM.
`COc1ncc(NS(=O)(=O)CC(C)(C)C#N)cc1/C=C/C1CCC(F)(F)CC1` [Compound 50, 2-cyano-N-[5-[(E)-2-(4,4-difluorocyclohexyl)vinyl]-6-methoxy-3-pyridyl]-2-methyl-propane-1-sulfonamide]: the values for the IC50 in assay [5] and in assay [6] were 1300 nM and 1100 nM, respectively.
In the case of `COc1ccc(C(=O)NC(C)C)cc1[C@H]1C[C@H](c2ccc(Cl)cc2)C1` (single isomer, unassigned) [Compound 9A], the figures for the IC50 in assay [5] and in assay [6] were 780 nM and 1600 nM, respectively.
Regarding `CC[C@H](CO)NC(=O)c1cc(/C=C/[C@H]2CC[C@H](C(F)(F)F)CC2)c(OC)nn1` [Compound 46, (E)-N-(1-hydroxybutan-2-yl)-6-methoxy-5-(2-(4-(trifluoromethyl)cyclohexyl)vinyl) pyridazine-3-carboxamide], the IC50 in assay [5] and in assay [6] was 1600 nM throughout.
Consider `CC[C@H](CO)NC(=O)c1cnc(OC)c(/C=C/C2CCC(F)(F)CC2)c1` (racemic) [Compound 35, 6-methoxy-5-[rac-(E)-2-(4,4-difluorocyclohexyl)vinyl]-N-[rac-(1R)-1-(hydroxymethyl)propyl]pyridine-3-carboxamide], for which the IC50 in assay [5] was 1900 nM; in assay [6], 1400 nM.
Consider `COc1nc(F)c(NS(C)(=O)=O)cc1/C=C/C1CCCCC1` [Compound 38, N-[5-[(E)-2-cyclohexylvinyl]-2-fluoro-6-methoxy-3-pyridyl]methanesulfonamide], for which the IC50 turned out to be 1100 nM in assay [5] and 2000 nM in assay [6].
In the case of `COc1ncc(NS(C)(=O)=O)cc1C1CC(c2ccc(Cl)cc2)C1` (centres unmarked) [Compound 13, N-[5-[3-(4-chlorophenyl)cyclobutyl]-6-methoxy-3-pyridyl]methanesulfonamide], the values for the IC50 in assay [5] and in assay [6] were 730 nM and 1800 nM, respectively.
As for `Cn1cc(Cc2ccc(Cl)cc2)c2cc(NS(C)(=O)=O)ccc21` [Compound 24, N-[3-[(4-chlorophenyl)methyl]-1-methyl-indol-5-yl]methanesulfonamide], the IC50 was determined as 360 nM in assay [5] and 780 nM in assay [6].
`COc1nnc(NS(C)(=O)=O)cc1/C=C/C1CCC(C(F)(F)F)CC1` (centres unmarked) [Compound 45, (E)-N-(6-methoxy-5-(2-(4-(trifluoromethyl)cyclohexyl)vinyl)pyridazin-3-yl)methanesulfonamide]: the half-maximal inhibitory concentration (IC50) amounted to 1600 nM in assay [5] and 1700 nM in assay [6].
